In patent publication US20090312349A1, “ANTI-INFLAMMATORY MEDICAMENTS” (priority 2004, published 2009):
Read-outs that look alike come from different tables or passages of the source.

Key:
[1] = target: T1, phospho p-38 alpha kinase (Homo sapiens, UniProt Q16539); assay: P-38 alpha kinase assay (spectrophotometric, pyruvate kinase/lactate dehydrogenase coupled); assay type: biochemical
T1 construct: purchased Panvera
Procedure: In this assay, the oxidation of NADH was continuously measured spectrophometrically. […] The reaction was initiated by adding ATP. The absorption at 340 nm was monitored continuously for up to 4 hours at 30° C. on Polarstar Optima plate reader (BMG). The kinase activity (reaction rate) was calculated from the slope at the time frame from 1.5 h to 2 h.
For inhibition determinations, test compounds were incubated with the reaction mixture for ˜5 min before adding ATP to start the reaction. […] IC50 values were calculated from a series of % inhibition values determined at a range of concentrations of each inhibitor using Prism to process the data and fit inhibition curves. Generally, the rates obtained at the time frame of 1.5 h to 2 h were used for these calculations.

[2] = target: phosphorylated p-38-alpha kinase (Homo sapiens, UniProt Q16539); assay: P-38 alpha kinase assay P1; assay type: biochemical; details: Method P1; 2 h pre-incubation before ATP
[3] = Table 5, assay not named, read-out: uM

phosphorylated p-38-alpha kinase, sequence (Q16539 1-360 isoform Q16539-2): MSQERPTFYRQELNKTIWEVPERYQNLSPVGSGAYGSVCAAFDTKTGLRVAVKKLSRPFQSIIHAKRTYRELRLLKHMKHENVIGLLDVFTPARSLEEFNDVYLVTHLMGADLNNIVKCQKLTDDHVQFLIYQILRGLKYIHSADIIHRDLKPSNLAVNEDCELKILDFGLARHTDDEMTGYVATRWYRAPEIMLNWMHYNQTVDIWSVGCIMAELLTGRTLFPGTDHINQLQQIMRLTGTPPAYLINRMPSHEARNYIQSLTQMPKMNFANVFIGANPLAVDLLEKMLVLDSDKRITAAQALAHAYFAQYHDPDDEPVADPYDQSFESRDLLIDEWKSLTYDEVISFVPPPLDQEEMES
T1 sequence (Q16539 whole entry): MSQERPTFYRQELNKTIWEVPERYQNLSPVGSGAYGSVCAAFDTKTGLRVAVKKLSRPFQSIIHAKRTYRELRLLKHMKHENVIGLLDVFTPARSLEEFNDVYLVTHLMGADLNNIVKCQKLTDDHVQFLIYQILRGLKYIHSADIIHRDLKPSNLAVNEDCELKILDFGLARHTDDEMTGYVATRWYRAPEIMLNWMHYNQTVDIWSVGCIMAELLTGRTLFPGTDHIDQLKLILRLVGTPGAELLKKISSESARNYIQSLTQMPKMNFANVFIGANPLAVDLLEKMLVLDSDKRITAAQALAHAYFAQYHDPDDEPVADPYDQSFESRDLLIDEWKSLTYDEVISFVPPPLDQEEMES

Compound | IC50 [1, 3] [µM] | also measured
CC(C)(C)c1cc(NC(=O)Nc2cccc(Cl)c2Cl)n(-c2cccc(Cn3c(=O)[nH]n(-c4ccccc4)c3=O)c2)n1 [Example 396, 1-(3-t-butyl-1-{3-[(3,5-dioxo-1-phenyl-1,2,4-triazolidin-4-yl)methyl]phenyl}-1H-pyrazol-5-yl)-3-(2,3-dichlorophenyl)urea] | – | % @ concentration, uM ([1]; Table 5, @ 0.1 uM): 3%; % @ concentration, uM ([1]; Table 5, @ 1 uM): 56%
CCOC(=O)Cc1cccc(-n2nc(C(C)(C)C)cc2NC(=O)Nc2ccccc2)c1 [Example 397, ethyl 2-{3-[3-t-butyl-5-(3-phenylureido)-1H-pyrazol-1-yl]phenyl}acetate] | 0.04 | –
CC(C)(C)c1cc(NC(=O)Nc2ccc(Cl)cc2)n(-c2cccc(CC(=O)O)c2)n1 [Example 399, 2-(3-{3-t-butyl-5-[3-(4-chlorophenyl)ureido]-1H-pyrazol-1-yl-}phenyl)acetic acid] | – | % @ concentration, uM ([1]; Table 5, @ 0.1 uM): 21%; % @ concentration, uM ([1]; Table 5, @ 1 uM): 74%
CC(C)(C)c1cc(NC(=O)Nc2cccc3ccccc23)n(-c2ccc3c(c2)CNCC3)n1 [Example 406, 1-[3-t-butyl-1-(1,2,3,4-tetrahydroisoquinolin-7-yl)-1H-pyrazol-5-yl]-3-(naphthalen-1-yl)urea] | 0.0134 | –
CC(C)(C)c1cc(NC(=O)Nc2ccc(Cl)cc2)n(-c2ccc3c(c2)CNCC3)n1 [Example 407, 1-[3-t-butyl-1-(1,2,3,4-tetrahydroisoquinolin-7-yl)-1H-pyrazol-5-yl]-3-(4-chlorophenyl)urea] | 0.0103 | –
Cn1[nH]c(=O)n(Cc2cccc(-n3nc(C(C)(C)C)cc3NC(=O)Nc3cccc(Cl)c3Cl)c2)c1=O [Example 408, 1-{5-t-butyl-2-[3-(1-methyl-3,5-dioxo-[1,2,4)triazolidin-4-ylmethyl)-phenyl]-2H-pyrazol-3-yl}-3-(2,3-dichloro-phenyl)-urea] | 0.116 | –
CC(C)c1cc(NC(=O)Nc2cccc3ccccc23)n(-c2ccc(C(O)C(F)(F)F)cc2)n1 (stereo not drawn) [Example 411, 1-(1-(4-(2,2,2-trifluoro-1-hydroxyethyl)phenyl)-3-isopropyl-1H-pyrazol-5-yl)-3-(naphthalen-1-yl)urea] | 0.008 | –
CC(C)(C)c1cc(NC(=O)Nc2cccc3ccccc23)n(-c2ccc(O)cc2)n1 [Example 415, 1-(3-t-butyl-1-(4-hydroxyphenyl)-1H-pyrazol-5-yl)-3-(naphthalen-1-yl)urea] | – | % @ concentration, uM ([1]; Table 5, @ 0.1 uM): 28%; % @ concentration, uM ([1]; Table 5, @ 1 uM): 69%
COC(=O)COc1ccc(-n2nc(C(C)(C)C)cc2NC(=O)Nc2cccc3ccccc23)cc1 [Example 416, 1-(3-t-butyl-1-(4-(carbomethoxymethyl)oxyphenyl)-1H-pyrazol-5-yl)-3-(naphthalen-1-yl)urea] | – | % @ concentration, uM ([1]; Table 5, @ 0.1 uM): 67%; % @ concentration, uM ([1]; Table 5, @ 1 uM): 83%
CC(C)(C)c1cc(NC(=O)Nc2ccc(Cl)cc2)n(-c2ccc(OCc3ccccc3)cc2)n1 [Example 418, 1-(3-t-butyl-1-(4-(benzyloxy)phenyl)-1H-pyrazol-5-yl)-3-(4-chlorophenyl)urea] | 0.075 | –
CC(C)(C)c1cc(N)n(-c2ccc(O)cc2)n1 [Example 420, 4-(3-t-butyl-5-amino-1H-pyrazol-1-yl)phenol] | 0.0147 | –
CC(C)(C)c1cc(NC(=O)Nc2ccc(Cl)cc2)n(-c2ccc(O)cc2)n1 [Example 421, 1-(3-t-butyl-1-(4 hydroxyphenyl)-1H-pyrazol-5-yl)-3-(4-chlorophenyl)urea] | 0.0147 | –
CCOC(=O)CCc1cccc(-n2nc(C(F)(F)F)cc2NC(=O)Nc2ccc(Cl)cc2)c1 [Example 426, 3-{3-(5-[3-(4-chloro-phenyl)-ureido]-3-trifluoromethyl-pyrazol-1-yl}-phenyl)-propionic acid ethyl ester] | 0.013 | –
O=C(O)CCc1cccc(-n2nc(C(F)(F)F)cc2NC(=O)Nc2ccc(Cl)cc2)c1 [Example 427, 3-(3-(5-(3-(4 chlorophenyl)ureido)-3-(trifluoromethyl)-1H-pyrazol-1-yl)phenyl)propanoic acid] | 0.819 | –
CCOC(=O)CCc1cccc(-n2nc(C)cc2NC(=O)Nc2ccc(Cl)cc2)c1 [Example 428, 3-(3-{5-[3-(4-chloro-phenyl)-ureido)-3-methyl-pyrazol-1-yl}-phenyl)-propionic acid ethyl ester] | 0.14 | –
CC(C)c1cc(NC(=O)Nc2ccc(Cl)cc2)n(-c2cccc(CCC(=O)O)c2)n1 [Example 429, 3-(3-(5-(3-(4-chlorophenyl)ureido)-3-isopropyl-1H-pyrazol-1-yl)phenyl)propanoic acid] | 1.07 | –
O=C(O)Cc1cccc(-n2nc(-c3ccccc3)cc2NC(=O)Nc2cccc(Cl)c2Cl)c1 [Example 430, 2-(3-(5-(3-(2,3-dichlorophenyl)ureido)-3-phenyl-1H-pyrazol-1-yl)phenyl)acetic acid] | 0.942 | –
O=C(O)Cc1cccc(-n2nc(-c3cccc(F)c3)cc2NC(=O)Nc2cccc(Cl)c2Cl)c1 [Example 432, 2-(3-(5-(3-(2,3-dichlorophenyl)ureido)-3-(3-fluorophenyl)-1H-pyrazol-1-yl)phenyl)acetic acid] | – | % @ concentration, uM ([1]; Table 5, @ 1 uM): 9%; % @ concentration, uM ([1]; Table 5, @ 10 uM): 24%; IC50 [2]: 0.011 µM
O=C(O)Cc1ccc(-n2nc(-c3cccc(F)c3)cc2NC(=O)Nc2cccc(Cl)c2Cl)cc1 [Example 439, 2-(4-(5-(3-(2,3-dichlorophenyl)ureido)-3-(3-fluorophenyl)-1H-pyrazol-1-yl)phenyl)acetic acid] | – | IC50 [2]: 0.013 µM
NC(=O)Cc1cccc(-n2nc(-c3ccccc3)cc2NC(=O)Nc2cccc(Cl)c2Cl)c1 [Example 447, 1-(1-(3-(2-amino-2-oxoethyl)phenyl)-3-phenyl-1H-pyrazol-5-yl)-3-(2,3-dichlorophenyl)urea] | – | IC50 [2]: 0.011 µM
O=C(Cc1ccc(-n2nc(-c3cccs3)cc2NC(=O)Nc2cccc(Cl)c2Cl)cc1)NCC(O)CO (stereo not drawn) [Example 472, 1-(2,3-dichlorophenyl)-3-(1-(4-(2-(2,3-dihydroxypropylamino)-2-oxoethyl)phenyl)-3-(thiophen-2-yl)-1H-pyrazol-5-yl)urea] | 0.05 | IC50 [2]: 0.01 µM
CN1CCN(C(=O)Cc2ccc(-n3nc(-c4ccccc4)cc3NC(=O)Nc3cccc(Cl)c3Cl)cc2)CC1 [Example 475, 1-(2,3-dichlorophenyl)-3-(1-(4-(2-(4-methylpiperazin-1-yl)-2-oxoethyl)phenyl)-3-phenyl-1H-pyrazol-5-yl)urea] | 0.01 | –
O=C(Nc1cccc(Cl)c1Cl)Nc1cc(-c2ccccc2F)nn1-c1ccc(CC(=O)N2CC[C@H](O)C2)cc1 [Example 479, 1-(2,3-dichlorophenyl)-3-(3-(2-fluorophenyl)-1-(4-(2-((S)-3-hydroxypyrrolidin-1-yl)-2-oxoethyl)phenyl)-1H-pyrazol-5-yl)urea] | – | IC50 [2]: 0.037 µM
O=C(Nc1cccc(Cl)c1Cl)Nc1cc(-c2cccs2)nn1-c1cccc(CO)c1 [Example 486, 1-(2,3-dichlorophenyl)-3-(1-(3-(hydroxymethyl)phenyl)-3-(thiophen-2-yl)-1H-pyrazol-5-yl)urea] | 0.057 | –
CC(Cc1cccc(-n2nc(-c3cccs3)cc2NC(=O)Nc2cccc(Cl)c2Cl)c1)C(=O)O (stereo not drawn) [Example 490, 3-(3-(5-(3-(2,3-dichlorophenyl)ureido)-3-(thiophen-2-yl)-1H-pyrazol-1-yl)phenyl)-2-methylpropanoic acid] | 0.34 | –
CC(C)(C)c1cc(NC(=O)Nc2cccc3ccccc23)n(-c2cccc(CO)c2)n1 [Example D, 1-{3-t-butyl-1-[3-(hydroxymethyl)phenyl]-1H-pyrazol-5-yl}-3-(naphthalen-1-yl)urea] | – | IC50 ([1]; Table 2, rates at […] to 2 h, read-out: IC50): 0.179 µM
